Experimental data reported in the supplement of paper PMC10307832.

Tests used:
Assay in all cases: relative viability (nuclei count vs DMSO), 5 days (fraction); higher = more cells survive
BGJ398 + Pemetrexed = compound: CCN1CCN(c2ccc(Nc3cc(N(C)C(=O)Nc4c(Cl)c(OC)cc(OC)c4Cl)ncn3)cc2)CC1 [BGJ398] + Nc1nc2[nH]cc(CCc3ccc(C(=O)N[C@@H](CCC(=O)O)C(=O)O)cc3)c2c(=O)[nH]1 [Pemetrexed] (partner 0.2 µM)
Outline: (§1)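 Lung cancer cell lines were seeded in 1536-well plates and dosed by pin tool the next day, with either a single drug or a fixed anchor-drug dose combined with five library-drug doses (not always all listed) spaced in √10 steps. Five days later, one step fixed the cells and stained their nuclei (final 0.05% Triton X-100, 1% formaldehyde, 1 ug/ml Hoechst), and nuclei were counted on 4× images. Relative viability is the nuclei count in treated wells divided by the count in vehicle wells, and each value is the median of duplicate plates.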

BGJ398 + Olaparib = compound: CCN1CCN(c2ccc(Nc3cc(N(C)C(=O)Nc4c(Cl)c(OC)cc(OC)c4Cl)ncn3)cc2)CC1 [BGJ398] + O=C(c1cc(Cc2n[nH]c(=O)c3ccccc23)ccc1F)N1CCN(C(=O)C2CC2)CC1 [Olaparib] (partner 8 µM)
Outline: as §1

[1] = compound: C1=CC2=NC=CN=C2C=C1/C=C/3\C(=O)NC(=O)S3 + C[C@]1(O)C[C@@H](c2nc(-c3ccc4ccc(-c5ccccc5)nc4c3)c3c(N)nccn32)C1 [Linsitinib] (partner 1 µM)
Outline: as §1

BGJ398 + Crizotinib = compound: CCN1CCN(c2ccc(Nc3cc(N(C)C(=O)Nc4c(Cl)c(OC)cc(OC)c4Cl)ncn3)cc2)CC1 [BGJ398] + C[C@@H](Oc1cc(-c2cnn(C3CCNCC3)c2)cnc1N)c1c(Cl)ccc(F)c1Cl [Crizotinib] (partner 1 µM)
Outline: as §1

Row | Cell Line | relative viability (BGJ398 + Pemetrexed; first compound 0.01 µM) | relative viability (BGJ398 + Pemetrexed; first compound 0.03162 µM) | relative viability (BGJ398 + Pemetrexed; first compound 0.1 µM) | relative viability (BGJ398 + Pemetrexed; first compound 0.3162 µM) | relative viability (BGJ398 + Pemetrexed; first compound 1 µM) | relative viability (BGJ398 + Olaparib; first compound 0.01 µM) | relative viability (BGJ398 + Olaparib; first compound 0.03162 µM) | relative viability (BGJ398 + Olaparib; first compound 0.1 µM) | relative viability (BGJ398 + Olaparib; first compound 0.3162 µM) | relative viability (BGJ398 + Olaparib; first compound 1 µM) | relative viability ([1]; first compound 0.02 µM) | relative viability ([1]; first compound 0.06325 µM) | relative viability ([1]; first compound 0.2 µM) | relative viability ([1]; first compound 0.6325 µM) | relative viability ([1]; first compound 2 µM) | relative viability (BGJ398 + Crizotinib; first compound 0.01 µM) | relative viability (BGJ398 + Crizotinib; first compound 0.03162 µM) | relative viability (BGJ398 + Crizotinib; first compound 0.1 µM) | relative viability (BGJ398 + Crizotinib; first compound 0.3162 µM) | relative viability (BGJ398 + Crizotinib; first compound 1 µM)
1 | SW 1573 | 0.817 | 0.833 | 0.83 | 0.748 | 0.944 | 0.413 | 0.388 | 0.45 | 0.543 | 0.525 | 0.78 | 0.825 | 0.943 | 0.847 | 0.714 | 0.878 | 0.802 | 0.773 | 0.808 | 0.767
2 | A-427 | 1.03 | 1.08 | 0.958 | 0.924 | 0.918 | 0.746 | 0.713 | 0.761 | 0.736 | 0.538 | 1.07 | 1.16 | 1.12 | 1.14 | 1.07 | 0.905 | 0.72 | 0.698 | 0.598 | 0.517
3 | NCI-H2347 | 0.4 | 0.462 | 0.427 | 0.43 | 0.375 | 0.539 | 0.546 | 0.553 | 0.631 | 0.63 | 1.01 | 0.957 | 0.957 | 0.993 | 0.92 | 0.593 | 0.878 | 0.728 | 0.962 | 0.698
4 | NCI-H1355 | 0.981 | 1.01 | 1.06 | 1.03 | 0.945 | 0.714 | 0.769 | 0.736 | 0.729 | 0.7 | 0.805 | 0.782 | 0.843 | 0.79 | 0.804 | 1.01 | 1.02 | 1.03 | 0.962 | 1.08
5 | NCI-H358 | 0.173 | 0.167 | 0.199 | 0.17 | 0.188 | 0.744 | 0.622 | 0.619 | 0.698 | 0.584 | 0.776 | 0.764 | 0.754 | 0.647 | 0.74 | 0.631 | 0.779 | 0.533 | 0.574 | 0.722
6 | PC-3 [JPC-3] | 1.16 |  | 0.766 |  | 0.992 | 1.12 |  | 1.26 |  | 1.15 | 0.889 | 1.01 | 0.879 | 0.923 | 0.963 | 1.02 |  | 1.09 | 0.971 | 0.961
7 | NCI-H2228 | 0.312 | 0.367 | 0.377 | 0.342 | 0.299 | 0.606 | 0.765 | 0.512 | 0.594 | 0.441 | 0.622 | 0.447 | 1.08 | 0.55 | 0.609 | 0.433 | 0.64 | 0.319 | 0.252 | 0.347
8 | HOP-62 | 0.375 | 0.382 | 0.335 | 0.36 | 0.379 | 0.291 | 0.525 | 0.538 | 0.349 | 0.558 | 1.04 | 0.982 | 1.1 | 1.01 | 1.06 | 0.755 | 1 | 0.861 | 1.13 | 0.737
